{
  "source": "ChEMBL document CHEMBL3045687",
  "about": "“Anti-microbial benzimidazole derivatives: synthesis and in vitro biological evaluation” (2012)",
  "format_in_all_cases": "functional",
  "key": {"[1]": {"tested_on": "Staphylococcus aureus", "assay": "Antimicrobial activity against Staphylococcus aureus assessed as zone of inhibition at 12.5 ug/ml after 18 to 24 hr by two-fold dilution technique relative to control"}, "[2]": {"tested_on": "Escherichia coli", "assay": "Antimicrobial activity against Escherichia coli assessed as zone of inhibition at 12.5 ug/ml after 18 to 24 hr by two-fold dilution technique relative to control"}, "[3]": {"tested_on": "Candida albicans", "assay": "Antimicrobial activity against Candida albicans assessed as zone of inhibition at 25 ug/ml after 48 hr by two-fold dilution technique relative to control"}},
  "data": [
    {"smiles": "COc1ccc(/C=C/c2nc3cc([N+](=O)[O-])ccc3[nH]2)c(OC)c1OC", "values": [
      {"measurement": "inhibition at 12.5 µg/mL", "setting": "[1]", "value": 75.2, "unit": "%"},
      {"measurement": "inhibition at 12.5 µg/mL", "setting": "[2]", "value": 76.6, "unit": "%"},
      {"measurement": "inhibition at 25 µg/mL", "setting": "[3]", "value": 82.5, "unit": "%"}
    ]},
    {"smiles": "Clc1ccc2[nH]c(/C=C/c3ccccc3)nc2c1", "values": [
      {"measurement": "inhibition at 12.5 µg/mL", "setting": "[1]", "value": 76.2, "unit": "%"},
      {"measurement": "inhibition at 12.5 µg/mL", "setting": "[2]", "value": 77.7, "unit": "%"},
      {"measurement": "inhibition at 25 µg/mL", "setting": "[3]", "value": 88.5, "unit": "%"}
    ]},
    {"smiles": "COc1ccc(/C=C/c2nc3cc(Cl)ccc3[nH]2)c(OC)c1OC", "values": [
      {"measurement": "inhibition at 12.5 µg/mL", "setting": "[1]", "value": 72.7, "unit": "%"},
      {"measurement": "inhibition at 12.5 µg/mL", "setting": "[2]", "value": 80.5, "unit": "%"},
      {"measurement": "inhibition at 25 µg/mL", "setting": "[3]", "value": 93.1, "unit": "%"}
    ]},
    {"smiles": "COc1ccc(/C=C/c2nc3cc(Cl)ccc3[nH]2)cc1OC", "values": [
      {"measurement": "inhibition at 12.5 µg/mL", "setting": "[1]", "value": 75.2, "unit": "%"},
      {"measurement": "inhibition at 12.5 µg/mL", "setting": "[2]", "value": 80.5, "unit": "%"},
      {"measurement": "inhibition at 25 µg/mL", "setting": "[3]", "value": 92.4, "unit": "%"}
    ]},
    {"smiles": "O=C(O)c1cn(C2CC2)c2cc(N3CCNCC3)c(F)cc2c1=O", "note": "[CIPROFLOXACIN]", "values": [
      {"measurement": "zone of inhibition at 12.5 µg/mL", "setting": "[1]; read-out: DIZ", "value": 14.4, "unit": "mm"},
      {"measurement": "zone of inhibition at 12.5 µg/mL", "setting": "[2]; read-out: DIZ", "value": 15.9, "unit": "mm"}
    ]},
    {"smiles": "Oc1ccc(/C=C/c2nc3cc(Cl)ccc3[nH]2)cc1", "values": [
      {"measurement": "inhibition at 12.5 µg/mL", "setting": "[1]", "value": 70.8, "unit": "%"},
      {"measurement": "inhibition at 12.5 µg/mL", "setting": "[2]", "value": 79.9, "unit": "%"},
      {"measurement": "inhibition at 25 µg/mL", "setting": "[3]", "value": 75.6, "unit": "%"}
    ]},
    {"smiles": "OC(Cn1cncn1)(Cn1cncn1)c1ccc(F)cc1F", "note": "[FLUCONAZOLE]", "values": [
      {"measurement": "zone of inhibition at 25 µg/mL", "setting": "[3]; read-out: DIZ", "value": 13.4, "unit": "mm"}
    ]},
    {"smiles": "O=[N+]([O-])c1ccc2[nH]c(/C=C/c3ccc(O)cc3)nc2c1", "values": [
      {"measurement": "inhibition at 12.5 µg/mL", "setting": "[1]", "value": 72.1, "unit": "%"},
      {"measurement": "inhibition at 12.5 µg/mL", "setting": "[2]", "value": 76.9, "unit": "%"},
      {"measurement": "inhibition at 25 µg/mL", "setting": "[3]", "value": 75, "unit": "%"}
    ]},
    {"smiles": "O=[N+]([O-])c1ccc2[nH]c(/C=C/c3ccc(Cl)cc3)nc2c1", "values": [
      {"measurement": "inhibition at 12.5 µg/mL", "setting": "[1]", "value": 82.1, "unit": "%"},
      {"measurement": "inhibition at 12.5 µg/mL", "setting": "[2]", "value": 80.7, "unit": "%"},
      {"measurement": "inhibition at 25 µg/mL", "setting": "[3]", "value": 84.2, "unit": "%"}
    ]},
    {"smiles": "O=[N+]([O-])c1ccc(/C=C/c2nc3cc([N+](=O)[O-])ccc3[nH]2)cc1", "values": [
      {"measurement": "inhibition at 12.5 µg/mL", "setting": "[1]", "value": 69.7, "unit": "%"},
      {"measurement": "inhibition at 12.5 µg/mL", "setting": "[2]", "value": 77.1, "unit": "%"},
      {"measurement": "inhibition at 25 µg/mL", "setting": "[3]", "value": 75.3, "unit": "%"}
    ]}
  ]
}
